Entries after “also recorded” stand apart in the source; their conditions may differ.
How the values were obtained:
REC = assay: Capillary-like tube formation on MATRIGEL; format: cell-based, bovine
Description: (§1) In vitro MATRIGEL™ biological cell culture substrate assay of capillary-like tube formation and secondary sprouting. […] Briefly, 50 μL of reconstituted basement membrane matrix from mouse EHS tumor (BD or GFR MATRIGEL™ biological cell culture substrate; Becton Dickinson Labware, Bedford, Mass.) were dispensed with frozen pipettes into each well of a previously frozen, sterile 96-well plate sitting on wet ice and allowed to solidify for 1 hr at room temperature or 37° C. Approximately 5×10^4 or 7.5×10^4 REC in a 100 μL volume were seeded into each triplicate well. Human recombinant or purified growth factors were added to a final concentration of 10 ng/mL (or as noted) in 0.5% FCS incomplete BREC medium. Capillary-like tube structures formed by REC on reconstituted basement membrane matrix were photographed at various intervals ranging from 12–72 hr; pictures were scanned, digitized and analyzed using image-processing software.

bovine REC [1] = assay: Secondary sprouting assay on reconstituted basement membrane matrix (MTS); format: cell-based
Description: as §1
For the secondary sprouting assay, cells on reconstituted basement membrane matrix were seeded as above but incubated in 0.5% FCS incomplete BREC medium without any growth factors for 3 days, allowing for tube formation and collapse. On day 3, human recombinant or purified growth factors were added to a final concentration of 10 ng/mL (or as noted) in low-serum incomplete BREC medium and incubated for another 5–6 days. Digital photographs were obtained with a Kodak MDS 100 camera attached to a Leitz DM IL inverted microscope. Digitized images obtained with a Kodak MDS 100 video camera were stored on compact discs and quantified with NIH Image 1.62 software. The number of living cells in the sprouting colonies were determined using the MTS cell proliferation assay.
A good correlation was observed between the spherical volume and the number of live cells in secondary sprouting colonies (not shown). Since the latter is an easy parameter to test by using the MTS assay, it was adopted as a faster method for studying the effect of various agents on secondary sprouting.

bovine REC [2] = assay: Migration (wound healing) assay; format: cell-based
Description: Migration assay. REC migration rates were examined in a wound healing assay, where cells migrate over time into the scrape wound in a monolayer. Briefly, cells were seeded in 24-well plates and allowed to reach confluence in growth medium. Prior to growth factor treatment, cells were serum-starved overnight in incomplete BREC medium with 0.5% FCS. All monolayers within an experiment were wounded with a single sterile wood stick of constant diameter, to ensure uniformity in the wound areas among different treatments. Wounded monolayers were then rinsed with low-serum medium to remove detached cells and treated with various combinations of human growth factors at 10 ng/mL each. On day 7, cells were rinsed 3× with PBS and fixed with methanol for 15 min, rehydrated with dH2O and stained with Meyer's hematoxylin for 5 min, followed by destaining with dH2O. All wells were photographed with a 4× or 10× objective using a Kodak MDS 100 digital camera attached to a Leitz DM IL inverted microscope. The original wound area was measured at 0 hr and used as a baseline for comparison to the treated wells at the conclusion of the experiment. The number of cells migrated into the wound was determined. Migrating cell counting was automated using the AAB (Advanced American Biotechnology, Fullerton, Calif.) software. Data were calculated and statistically analyzed (Spirin K S et al., Basement membrane and growth factor gene expression in normal and diabetic human retinas, Curr. Eye Res. 18:490–499 [1999]) relative to control cultures that received the same concentrations of bovine serum albumin instead of growth factors and/or inhibitor, compared to vehicle instead of inhibitor after wounding. Inhibitors were added 30 min before growth factors.

bovine REC [3] = assay: REC proliferation assay (MTS); format: cell-based
Description: REC proliferation and survival assays. 96-well plates were coated with various amounts of TN-C or vehicle. 5×10^3 cells were added to each triplicate well in low-serum REC medium with various amounts of growth factors (0.5% FCS incomplete BREC medium containing 10 ng/ml of human IGF-I, FGF-2, VEGF, PlGF and PDGF-BB [R&D Systems Inc., Minneapolis, Minn.]). Cell numbers were determined on days 4–7 using the MTS cell proliferation assay (Promega Corp.) according to manufacturer's instructions. Survival was measured in the same way using high glucose (30 mM) or chemical hypoxia (2 mM sodium azide) or serum-free medium to induce cell death. Cell numbers were determined on days 4–7 using MTS assay (Promega).

[4] = Solubility of emodin in injection vehicle; format: physicochemical; conditions: phosphate-buffered saline with 20% PEG 400 + 2% Tween-80, pH 7.2
Description: A minimum of 5 mouse pups were used per group. Emodin at 20–30 μg/g of body mass (or 10 μl/g) was prepared as a solution (70% ethanol) or suspension (PEG-Tween) in vehicle. Vehicle (“emodin solvent”) was 70% ethanol in initial experiments. In three later experiments, phosphate-buffered saline with 20% polyethylene glycol 400 (PEG 400)+2% Tween-80, pH 7.2, was used as vehicle.

[5] = tested on: retinal neovascularization; assay: Oxygen-induced retinopathy in newborn mice; format: in vivo, mouse
telomerase = assay: Telomerase assay (TRAP) in cultured endothelial cells; format: cell-based
Text: Cells in secondary sprouting colonies contained high telomerase activity (FIG. 10, 3rd column) when compared to the parental cells (1st column), as measured by telomerase assay (TRAP; Yang, J., et al., Stem and germline cells are among the only cells in postnatal tissues that continue to express telomerase activity, J. Biol. Chem. 274(37):26141–26148 [1999]; Hsiao, R. et al., Mature endothelial cells express very low levels of telomerase and it's lost during the first five divisions in vitro, Anticancer Res 17:827–832 [1997]; Kolquist, K A et al., Nature Genet 19:182–186 [1998] as reviewed by Chang E et al. J. Invest. Dermatol. 118:752–8. [2002]). This enzyme activity is either very low or absent in aging or differentiated cells, but it is high in precursors. (Armstrong et al., mTert expression correlates with telomerase activity during the differentiation of murine embryonic stem cells. Mech Dev. 2000. 97(1–2):109–116). Telomerase activity is also high in invasive and highly proliferative cancers but not in normal adult cells. (Blasco et al., Telomeres and telomerase. Genes & Development. 1999. 13:2353–2359).

[6] = tested on: secondary sprouting colonies; assay: Marker expression in secondary sprouting colonies (RT-PCR, immunofluorescence); format: cell-based; conditions: treatment of secondary sprouting colonies
Description: Detection of markers expressed by cells selected from secondary sprouting colonies was carried out using reverse-transcriptase polymerase chain reaction (RT-PCR) with RNA derived from secondary sprouting cells, which was compared to RNA derived from non-sprouting cells. The RT-PCR method allows the detection of low-levels of message coding for the above-mentioned markers. Following manufacturer's instructions, RNA isolation was done with a QiaShredder kit (Qiagen) on isolated sprouts (scooped out of MATRIGEL™ biological cell culture substrate) followed by use of the RNAeasy kit (Qiagen), and the RT-reaction was conducted using a SMART cDNA kit (Clontech) and the RT-PCR protocol, as described in Hamdi et al., Biochem Biophys Res Commun. 295(3):668–72 [Jul. 19, 2002] but using approx. 50 ng of cDNA instead of genomic DNA per PCR reaction. The following primers were used: […]

[7] = basal and growth factor-stimulated (CK2 blockers), H-7 preliminary, not shown

Cc1cc(O)c2c(c1)C(=O)c1cc(O)cc(O)c1C2=O [emodin, 3-methyl-1,6,8-trihydroxyanthraquinone]
effect of kinase inhibitors on tube formation (REC; [7]): potently inhibited
effect of kinase inhibitors on secondary sprouting (bovine REC [1]; [7]): potently inhibited
effect of kinase inhibitors on migration (bovine REC [2]; [7]): potently inhibited
effect on growth factor-mediated cell migration (bovine REC [2]; four GFs 10 ng/ml each, 7 days, 0.5% serum, emodin 10 μM, DRB 15 μM): significant inhibitory effect
effect of kinase inhibitors on proliferation (bovine REC [3]; [7]): potently inhibited
solubility in vehicle [4]: did not ensure emodin solubility
neovascular tufts in fluorescein angiograms vs vehicle control ([5]; intraperitoneal): much less pronounced
retinal vascularization in fluorescein angiograms vs vehicle control ([5]; intraperitoneal): significantly less vascularization
diminution of retinal neovascularization (preretinal nuclei count) ([5]; two intraperitoneal injections daily, day 11 to 17 after birth, emodin 20–30 μg/g, vs untreated or vehicle): 70–75%

PDGF-BB: platelet derived growth factor (PDGF)-BB, human recombinant or purified angiogenic growth factor
telomerase activity of differentiated endothelial cells (telomerase; differentiative culture conditions (plastic, no MATRIGEL)): opposite effect
telomerase activity of sprouting colonies (telomerase; expansive culture conditions (MATRIGEL, low serum medium)): increases the activity of telomerase
expression of AC133, CD166, AML-1, uPA, tPA [6]: increased the expression
effect of growth factors on tube formation (REC; growth factors 10 ng/mL each): pro-collapsing factor
morphology of sprouting colonies after growth factor treatment (bovine REC [1]; 10 ng/mL): shorter and thicker sprouts
effect of growth factors on secondary sprouting (live cell number) (bovine REC [1]; 10 ng/mL, 0.5% FCS medium): potently stimulated; also recorded: most potent single growth factor; also recorded: potent stimulator; also recorded: dramatic increase; also recorded: greatly enhanced; also recorded: the most potent
additivity of effect on secondary sprouting with individual growth factors (bovine REC [1]; PDGF-BB 1 ng/mL ± VEGF, IGF-I, PlGF or FGF-2 10 ng/mL, added day 3): not additive or synergistic; also recorded: not additive
effect on secondary sprouting when added after tube collapse (bovine REC [1]; growth factor added after the tubes had collapsed (day 3)): again increased secondary sprouting
stimulation of secondary sprouting (fold, on average) (bovine REC [1]; growth factors, live cells by MTS): three-fold
additivity of effect on secondary sprouting with combinations of three growth factors (bovine REC [1]; three growth factors 10 ng/mL each plus fourth factor 0–100 ng/mL, added day 3): potentiated their responses; also recorded: additive
effect of growth factors on REC migration (bovine REC [2]; growth factors 10 ng/mL each): potent stimulator
effect of growth factors on REC proliferation (bovine REC [3]; growth factors 10 ng/mL each): potent stimulator

— patent US7101707B2, “Secondary sprouting for isolation and expansion of endothelial sprout cells and endothelial precursor cells from a mixed population and for screening substances” (Cedars-Sinai Medical Center, priority 2002, dated 2006)
